This is an account of results in patent US20080221086A1, “Novel Inhibitors of Glutaminyl Cyclase” (PROBIODRUG AG, priority 2006, published 2008).

pIC50: −log10 of the molar value.

Chain of hQC (Q16769 29-361): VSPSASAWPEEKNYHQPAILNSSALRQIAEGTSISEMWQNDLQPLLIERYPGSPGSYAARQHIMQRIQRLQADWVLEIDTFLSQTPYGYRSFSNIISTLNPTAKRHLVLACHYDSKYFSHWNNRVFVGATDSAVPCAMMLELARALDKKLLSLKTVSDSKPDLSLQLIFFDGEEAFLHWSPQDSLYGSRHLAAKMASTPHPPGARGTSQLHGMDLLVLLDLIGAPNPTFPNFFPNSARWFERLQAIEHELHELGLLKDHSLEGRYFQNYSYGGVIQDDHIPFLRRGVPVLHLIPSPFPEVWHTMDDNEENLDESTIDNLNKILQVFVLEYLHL

System in one data set: not given
Experiment: not given
Conditions: not given
In general, melting point refers to the temperature of the solid-liquid transition. For `O=C1N/C(=N\C2CCCCC2)C(c2ccc(Br)cc2)N1c1ccc2nc[nH]c2c1` (stereo not drawn) [Compound 199, 1-(1H-Benzoimidazol-5-yl)-5-(4-bromo-phenyl)-4-(cyclohexylimino)-imidazolidin-2-one], the melting point was determined as 205 °C.

The target in the next data set is hQC (Homo sapiens, UniProt Q16769). Nature of the data set: Fluorometric assay of glutaminyl cyclase (QC) inhibition, H-Gln-βNA or H-Gln-AMC substrate. To be noted: compound from preparative synthesis, purified by chromatography; fluorescent assay; read-out: IC50 hQC. Type of data set: biochemical. The method, boiled down:
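Fluorometric coupled assays at 30° C in Tris/HCl pH 8.0 with EDTA and pyroglutamyl aminopeptidase used either 0.2 mM H-Gln-βNA (320/410 nm) or H-Gln-AMC (380/460 nm), started by QC. Screening used 4 mM inhibitor at substrate 1 KM. Ki came from fitting progress curves to competitive inhibition.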
By pIC50 is commonly meant −log10 of the IC50, conventionally taken in molar units. In the case of `O=C1N/C(=N\C2CCCCC2)C(c2ccc(Br)cc2)N1c1ccc2nc[nH]c2c1` (stereo not drawn) [Compound 199, 1-(1H-Benzoimidazol-5-yl)-5-(4-bromo-phenyl)-4-(cyclohexylimino)-imidazolidin-2-one], the pIC50 was 7.63.
`O=C1N/C(=N/c2ccc3c(c2)OCCO3)C(c2ccc(Br)cc2)N1c1ccc2[nH]cnc2c1` (stereo not drawn) [Compound 331, 1-(1H-Benzoimidazol-5-yl)-5-(4-bromo-phenyl)-4-[2,3-dihydro-benzo[1,4]dioxin-6-ylimino]-imidazolidin-2-one]: the pIC50 is 7.18.
On the same count and under the same terms, the result for `O=C1N/C(=N\[C@H]2CCc3ccccc32)C(c2ccc(Br)cc2)N1c1ccc2[nH]cnc2c1` (stereo partly drawn) [Compound 333, 1-(1H-Benzoimidazol-5-yl)-5-(4-bromo-phenyl)-4-((S)-indan-1-ylimino)-imidazolidin-2-one] reads 7.55.

The same data set, now with this note: read-out: IC50.
Turning to `O=C1N/C(=N\C2CCCCC2)C(c2ccc(Br)cc2)N1c1ccc2nc[nH]c2c1` (stereo not drawn) [Compound 199, 1-(1H-Benzoimidazol-5-yl)-5-(4-bromo-phenyl)-4-(cyclohexylimino)-imidazolidin-2-one], the pIC50 was 8.40.
The same measure, in the same setting: the result for `O=C1N/C(=N/CCc2cccs2)C(c2cc3c(cc2Br)OCO3)N1c1ccc2nc[nH]c2c1` (stereo not drawn) [Compound 314, 1-(3H-Benzoimidazol-5-yl)-5-(6-bromo-benzo1,3dioxol-5-yl)-4-2-thiophen-2-yl-ethylimino-imidazolidin-2-one] reads 8.40; that for `CC(CC1/C(=N/C2CCCCCC2)NC(=S)N1c1ccc2nc[nH]c2c1)CC(C)(C)C` (stereo not drawn) [Compound 315, 1-(3H-Benzoimidazol-5-yl)-4-cycloheptylimino-5-(2,4,4-trimethyl-pentyl)-imidazolidine-2-thione], 5.12; that for `CC1=CC(C)C(C2/C(=N/CC(=O)N3CCC(O)CC3)NC(=O)N2c2ccc3nc[nH]c3c2)CC1` (stereo not drawn) [Compound 316, 1-(3H-Benzoimidazol-5-yl)-5-(2,4-dimethyl-cyclohex-3-enyl)-4-2-(4-hydroxy-piperidin-1-yl)-2-oxo-ethylimino-imidazolidin-2-one], 5.12.
Same read-out and setting: the result for `CCc1ccccc1/N=C1\NC(=S)N(c2ccc3[nH]cnc3c2)C1c1ccccc1` (stereo not drawn) [Compound 317, 1-(1H-Benzoimidazol-5-yl)-4-2-ethyl-phenylimino-5-phenyl-imidazolidine-2-thione] reads 5.03.
Same read-out and setting: under `O=C1N/C(=N\C2CCCC2)C(c2ccc(Cl)c(F)c2)N1c1ccc2[nH]cnc2c1` (stereo not drawn) [Compound 318, 1-(1H-Benzoimidazol-5-yl)-5-(4-chloro-3-fluoro-phenyl)-4-cyclopentylimino-imidazolidin-2-one] stands 8.40; under `COC(=O)C(C)/N=C1\NC(=S)N(c2ccc3[nH]cnc3c2)C1c1ccc(C)cc1` (stereo not drawn) [Compound 320, Methyl 2-(1-(1H-benzo[d]imidazol-5-yl)-2-thioxo-5-p-tolylimidazolidin-4-ylideneamino)propanoate], 5.24.
Regarding `O=C1CCCN1CCC/N=C1/NC(=O)N(c2ccc3nc[nH]c3c2)C1c1ccc(Br)cc1` (stereo not drawn) [Compound 321, 1-(3H-Benzoimidazol-5-yl)-5-(4-bromo-phenyl)-4-3-(2-oxo-pyrrolidin-1-yl)-propylimino-imidazolidin-2-one], the negative logarithm of the IC50 (pIC50) was 8.40.
Turning to `CN(C)c1ccc(C2/C(=N\Cn3nnc4ccccc43)NC(=O)N2c2ccc3[nH]cnc3c2)cc1` (stereo not drawn) [Compound 322, 1-(1H-Benzoimidazol-5-yl)-4-benzotriazol-1-ylmethylimino-5-(4-dimethylamino-phenyl)-imidazolidin-2-one], the pIC50 is 5.89.
Turning to `O=C1CCCN1CCC/N=C1/NC(=O)N(c2ccc3[nH]cnc3c2)C1c1ccc(Cl)c(F)c1` (stereo not drawn) [Compound 323, 1-(1H-Benzoimidazol-5-yl)-5-(4-chloro-3-fluoro-phenyl)-4-3-(2-oxo-pyrrolidin-1-yl)-propylimino-imidazolidin-2-one], the negative-log IC50 (pIC50) was 6.40.
Same read-out and setting: the result for `Cc1cccc(C2/C(=N\Cn3nnc4ccccc43)NC(=O)N2c2ccc3[nH]cnc3c2)c1` (stereo not drawn) [Compound 324, 1-(1H-Benzoimidazol-5-yl)-4-benzotriazol-1-ylmethylimino-5-m-tolyl-imidazolidin-2-one] reads 5.51; that for `O=C1N/C(=N/Cn2nnc3ccccc32)CN1c1ccc2[nH]cnc2c1` [Compound 325, 1-(1H-Benzoimidazol-5-yl)-4-benzotriazol-1-ylmethylimino-imidazolidin-2-one], 5.17.
Consider `O=C1N/C(=N\C(Cc2ccccc2)c2ccccc2)C(c2cc3c(cc2Br)OCO3)N1c1ccc2[nH]cnc2c1` (stereo not drawn) [Compound 326, 1-(1H-Benzoimidazol-5-yl)-5-(6-bromo-benzo1,3dioxol-5-yl)-4-1,2-diphenyl-ethylimino-imidazolidin-2-one], for which the pIC50 was 8.40.
Same read-out and setting: the result for `O=C(CN=C1NC(=O)N(c2ccc3[nH]cnc3c2)C1c1cc2c(cc1Br)OCO2)N1CCCCC1` (stereo not drawn) [Compound 327, 4-(2-Oxo-2-(piperidin-1-yl)ethylimino)-1-(1H-benzo[d]imidazol-5-yl)-5-(5-bromobenzo[d][1,3]dioxol-6-yl)imidazolidin-2-one] reads 8.40; that for `C/N=C1\NC(=O)N(c2ccc3[nH]cnc3c2)C1c1coc2ccc(C)cc2c1=O` (stereo not drawn) [Compound 328, 1-(1H-Benzoimidazol-5-yl)-4-methylimino-5-(6-methyl-4-oxo-4H-chromen-3-yl)-imidazolidin-2-one], 5.89.
On the same count and under the same terms, under `Cc1ccc(C2/C(=N/C3CCCCC3O)NC(=O)N2c2ccc3nc[nH]c3c2)c(C)c1` (stereo not drawn) [Compound 329, 1-(3H-Benzoimidazol-5-yl)-5-(2,4-dimethyl-phenyl)-4-2-hydroxy-cyclohexylimino-imidazolidin-2-one] stands 5.17.
For the compound `CC1=CC(C)C(C2/C(=N/c3ccc4c(c3)OCCO4)NC(=S)N2c2ccc3[nH]cnc3c2)CC1` (stereo not drawn) [Compound 330, 1-(1H-Benzoimidazol-5-yl)-4-2,3-dihydro-benzo1,4dioxin-6-ylimino-5-(2,4-dimethyl-cyclohex-3-enyl)-imidazolidine-2-thione], the negative logarithm of the IC50 (pIC50) was 5.03.
Still for that read-out and setting: under `O=C1N/C(=N/c2ccc3c(c2)OCCO3)C(c2ccc(Br)cc2)N1c1ccc2[nH]cnc2c1` (stereo not drawn) [Compound 331, 1-(1H-Benzoimidazol-5-yl)-5-(4-bromo-phenyl)-4-[2,3-dihydro-benzo[1,4]dioxin-6-ylimino]-imidazolidin-2-one] stands 8.40; under `Cc1ccc(C2/C(=N/C(C)(C)CC(C)(C)C)NC(=S)N2c2ccc3nc[nH]c3c2)c(C)c1` (stereo not drawn) [Compound 332, 1-(3H-Benzoimidazol-5-yl)-5-(2,4-dimethyl-phenyl)-4-1,1,3,3-tetramethyl-butylimino-imidazolidine-2-thione], 5.03; under `O=C1N/C(=N\[C@H]2CCc3ccccc32)C(c2ccc(Br)cc2)N1c1ccc2[nH]cnc2c1` (stereo partly drawn) [Compound 333, 1-(1H-Benzoimidazol-5-yl)-5-(4-bromo-phenyl)-4-((S)-indan-1-ylimino)-imidazolidin-2-one], 8.40.
On the same count and under the same terms, under `O=C1N/C(=N\c2ccc3c(c2)OCCO3)C(c2cccc(Br)c2)N1c1ccc2nc[nH]c2c1` (stereo not drawn) [Compound 334, 1-(3H-Benzoimidazol-5-yl)-5-(3-bromo-phenyl)-4-2,3-dihydro-benzo1,4dioxin-6-ylimino-imidazolidin-2-one] stands 6.40.
Same read-out and setting: under `O=C1CCCN1CCC/N=C1/NC(=O)N(c2ccc3[nH]cnc3c2)C1c1cc(F)cc(F)c1` (stereo not drawn) [Compound 335, 1-(1H-Benzoimidazol-5-yl)-5-(3,5-difluoro-phenyl)-4-3-(2-oxo-pyrrolidin-1-yl)-propylimino-imidazolidin-2-one] stands 5.89; under `O=C1N/C(=N\C2CCCc3ccccc32)C(c2cccc(Br)c2)N1c1ccc2[nH]cnc2c1` (stereo not drawn) [Compound 336, 1-(1H-Benzoimidazol-5-yl)-5-(3-bromo-phenyl)-4-1,2,3,4-tetrahydro-naphthalen-1-ylimino-imidazolidin-2-one], 8.40.
As for `O=C1N/C(=N\Cn2nnc3ccccc32)C(c2ccccc2F)N1c1ccc2[nH]cnc2c1` (stereo not drawn) [Compound 337, 1-(1H-Benzoimidazol-5-yl)-4-benzotriazol-1-ylmethylimino-5-(2-fluoro-phenyl)-imidazolidin-2-one], the pIC50 was 5.89.
The same measure, in the same setting: the result for `O=C1N/C(=N\C(Cc2ccccc2)c2ccccc2)C(c2cccc(Br)c2)N1c1ccc2[nH]cnc2c1` (stereo not drawn) [Compound 338, 1-(1H-Benzoimidazol-5-yl)-5-(3-bromo-phenyl)-4-1,2-diphenyl-ethylimino-imidazolidin-2-one] reads 8.40; that for `C/N=C1/NC(=O)N(c2ccc3[nH]cnc3c2)C1c1ccc(Cl)c(F)c1` (stereo not drawn) [Compound 339, 1-(1H-Benzoimidazol-5-yl)-5-(4-chloro-3-fluoro-phenyl)-4-methylimino-imidazolidin-2-one], 6.40; that for `O=C(C/N=C1/NC(=O)N(c2ccc3[nH]cnc3c2)C1c1ccc(Cl)cc1)N1CCC(O)C1` (stereo not drawn) [Compound 340, 1-(1H-Benzoimidazol-5-yl)-5-(4-chloro-phenyl)-4-2-(3-hydroxy-pyrrolidin-1-yl)-2-oxo-ethylimino-imidazolidin-2-one], 5.40.
Same read-out and setting: under `O=C1N/C(=N/CCN2CCOCC2)C(c2cccc(Br)c2)N1c1ccc2nc[nH]c2c1` (stereo not drawn) [Compound 341, 1-(3H-Benzoimidazol-5-yl)-5-(3-bromo-phenyl)-4-2-morpholin-4-yl-ethylimino-imidazolidin-2-one] stands 5.89.
Still for that read-out and setting: under `O=C(C/N=C1/NC(=O)N(c2ccc3[nH]cnc3c2)C1c1cccc(Br)c1)N1CCSCC1` (stereo not drawn) [Compound 342, 1-(1H-Benzoimidazol-5-yl)-5-(3-bromo-phenyl)-4-2-oxo-2-thiomorpholin-4-yl-ethylimino-imidazolidin-2-one] stands 6.40; under `O=C(C/N=C1\NC(=O)N(c2ccc3[nH]cnc3c2)C1c1ccnc2ccccc12)N1CCC(O)CC1` (stereo not drawn) [Compound 343, 1-(1H-Benzoimidazol-5-yl)-4-2-(4-hydroxy-piperidin-1-yl)-2-oxo-ethylimino-5-quinolin-4-yl-imidazolidin-2-one], 5.17; under `Cc1ccc(C2/C(=N/C3CCCCCC3)NC(=S)N2c2ccc3nc[nH]c3c2)c(C)c1` (stereo not drawn) [Compound 344, 1-(3H-Benzoimidazol-5-yl)-4-cycloheptylimino-5-(2,4-dimethyl-phenyl)-imidazolidine-2-thione], 5.31.
Take `O=C1N/C(=N/CCc2ccccn2)C(c2c[nH]c3cc(F)ccc23)N1c1ccc2[nH]cnc2c1` (stereo not drawn) [Compound 345, 1-(1H-Benzoimidazol-5-yl)-5-(6-fluoro-1H-indol-3-yl)-4-2-pyridin-2-yl-ethylimino-imidazolidin-2-one]: the negative-log IC50 (pIC50) is 5.40.
